# From US20090156404A1, “Methods and Compositions for Reducing Stress in Plants” (CROP MICROCLIMATE MANAGEMENT, INC., priority 2007, published 2009)
# Columns and labels:
# Type in all cases: in vivo, tomato
# [1] = system: tomatoes (var. Marglobe); experiment: Freeze event, greenhouse grown tomatoes sprayed with composition (Example 1); settings: exposures to −3.3° C
# From the text: Unadapted plants in trays were sprayed with a composition comprised of a particulate material and a plant growth regulating compound mixed with water. The composition was applied using a backpack sprayer in a factorial trial design. The particulate material used was kaolin, applied at 25 and 50 kg/ha. […] Two plant growth regulating compounds, methyl salicylate and sodium salicylate, were each mixed individually with the kaolin. In addition to combinations of kaolin and each of the plant growth regulating compounds, the experiment included applying kaolin alone and each of the plant growth regulating compounds alone, each mixed with water. The concentrations of each of the plant growth regulating compounds in the composition were 1×10^−4M and 1×10^−5M.
# [2] = system: tomatoes (var. Marglobe); experiment: Growth chamber induced temperature/light stress in tomatoes (Example 2); settings: for Chlorosis (%): after five days, 4 to 42° C
# Protocol: In this example, a growth chamber was used to induce stress in plants. Tomatoes (var. Marglobe) were greenhouse grown, then adapted in the growth chamber for two days at a constant 20° C. and the highest light intensity produced by the growth chamber. The temperature was then programmed for a multi-step diurnal variation between about 4 and about 42° C. The plants were treated with a composition comprised of a particulate material and a plant growth regulating compound mixed with water. The particulate material used was Kaolin, applied at 25 and 50 kg/ha. […] The plant growth regulating compound was sodium salicylate, which was applied at 1×10^−4M and 1×10^−5M in the composition. In addition to combinations of kaolin and the plant growth regulating compound, the experiment included applying kaolin alone and the plant growth regulating compound alone, each mixed with water.
# [3] = system: Field-grown tomatoes (var. Better Boy); experiment: Field trial without irrigation, weekly treatments (Example 3)
# From the text: Treatment consisted of a composition comprised of a particulate material and a plant growth regulating compound mixed with water. The particulate material was kaolin, applied at 25 and 50 kg/ha. […] The plant growth regulating compound was sodium salicylate, which was applied at a concentration of 1×10^−5M in the composition. In addition to combinations of kaolin and the plant growth regulating compound, the experiment included applying kaolin alone and the plant growth regulating compound alone, each mixed with water. The trial was conducted in a grower field of sandy soil in Wake County, N.C. under grower conditions. The conditions were considered to be severe, as there was no irrigation and rainfall was insufficient during the trial. Treatments were applied at weekly intervals. The trial was a randomized complete block design with three replications.
# [4] = system: early season tomatoes (var. Mountain Spring); experiment: Irrigated field trial, flower abortion (Example 4); settings: 1 × 10^−5M
# From the text: In addition to combinations of kaolin and the plant growth regulating compound, the experiment included applying kaolin alone and the plant growth regulating compound alone, each mixed with water.
# [5] = system: Potted tomatoes; experiment: Chill stress of potted tomatoes under field conditions (Example 5); settings: particulate 0 kg/ha, rating 10 completely healthy, 0 dead
# From the text: Potted tomatoes under field conditions were subjected to cold temperatures in Australia in September-October 2007. […] The plants were sprayed with a composition comprised of particulate material and a plant growth regulating compound mixed with water. The particulate material used was kaolin, applied at 25 and 50 kg/ha. […] Two plant growth regulating compounds, sodium salicylate and benzyl acetate, were each mixed individually with the kaolin. The concentration of each plant growth regulating compound in the composition was 1×10^−5M. In addition to combinations of kaolin and each of the plant growth regulating compounds, the experiment included applying kaolin alone and sodium salicylate alone each mixed with water. The vigor and health of the plants were evaluated during the period of the trial.
smiles,measurement,setting,value
"COC(=O)c1ccccc1O [Me Salicylate, methyl salicylate]",Mortality (%),[1]; 1 × 10^−4M,0%
same,Mortality (%),[1]; 1 × 10^−5M,20%
"O=C([O-])c1ccccc1O.[Na+] [Na Salicylate, sodium salicylate]",Mortality (%),[1]; 1 × 10^−4M,83%
same,Mortality (%),[1]; 1 × 10^−5M,6.3%
same,Growth (cm),[2]; 1 × 10^−4M,1.9 cm
same,Chlorosis (%),[2]; 1 × 10^−4M,7.5%
same,Growth (cm),[2]; 1 × 10^−5M,1.9 cm
same,Chlorosis (%),[2]; 1 × 10^−5M,8.8%
same,# flower clusters/plant,"[3]; Rating 1, 1 × 10^−5M",2.61
same,# Fruit > 2 cm,"[3]; Rating 2, 1 × 10^−5M",1.05
same,# flower clusters/plant,"[3]; Rating 2, 1 × 10^−5M",3.78
same,# Mature blossoms,"[3]; Rating 3, 1 × 10^−5M",2.89
same,# clusters/plant,"[3]; Rating 3, 1 × 10^−5M",0.75
same,Fruit > 1 cm,"[3]; Rating 3, 1 × 10^−5M",1.46
same,stress protection (in words),"[3]; plant growth, flowering, fruit clusters per plant, no irrigation",values intermediate between the untreated plants and the plants treated with both
same,# Aborted Flowers/Plant,[4]; Rating 1,20.75
same,# Aborted Flowers/Plant,[4]; Rating 2,3.94
same,Plant Vigor/Health,"[5]; 7/10/2007, growth compound 0.8 g/ha",7.7 a
same,Plant Vigor/Health,"[5]; 7/10/2007, growth compound 1.6 g/ha",7.3 a
same,Plant Vigor/Health,"[5]; 12/9/2007, growth compound 0.8 g/ha",10 a
same,Plant Vigor/Health,"[5]; 12/9/2007, growth compound 1.6 g/ha",10 a
same,Plant Vigor/Health,"[5]; 26/09/2007, growth compound 0.8 g/ha",6.5 ab
same,Plant Vigor/Health,"[5]; 26/09/2007, growth compound 1.6 g/ha",6.5 ab
